Counter-ions that a name gives are not always drawn. Bridge positions count the residues as written; N and C are the ends. Square brackets hold non-standard residues; d marks the D form. Peptide text beside a SMILES is read from it. * marks the point of attachment. X1 = CC[C@H](C)CCCCC(=O)*; Dab = NCC[C@H](N)C(=O)O
What was measured:
[1] = system: carbapenem-resistant P. aeruginosa 048431 pneumonia; assay: Survival study in the neutropenic murine pneumonia model; format: in vivo; conditions: neutropenic (cyclophosphamide) male C57BL/6 mice, intratracheal P. aeruginosa 048431, 8 mg/kg iv 90 min after infection and again on day 2, n = 10
Experimental: (§1) Male C57BL/6 mice (21 to 23 g) were divided into three groups (namely control, free colistin, and CCM-CL), with 10 mice in each group. All animals were administered 150 mg/kg of cyclophosphamide intraperitoneally, 3 days and 1 day before infection. At day 0 (defined as infection day), mice were infected with 0.04 mL of a drug-resistant strain P. aeruginosa 048431, which was administered intratracheally at a concentration of 5 × 10^5 CFUs/mL. Ninety minutes later, water, free colistin, and CCM-CL were administered intravenously at 8 mg/kg. On day 2, free colistin and CCM-CL at a dose of 8 mg/kg and water were administered again (Figure 5).
Data were analyzed using WinSTATt (Microsoft Excel). Overall survival probabilities […] were estimated using the Kaplan–Meier method. The log-rank test (Cox–Mantel) was used to test significant differences in survival among groups.

[2] = Pharmacokinetic study, plasma colistin after intravenous dosing; format: in vivo, Sprague-Dawley (SD) rats; conditions: male SD rats, iv 3 mg/kg for 15 min, LC-MS; for t1/2, elimination half-time T1/2(β): 3 rats per group, colistin one-compartment, CCM-CL two-compartment model (PKsolver), 3 mg/kg
Experimental: Chromatographic separation was performed by the ACQUITY UHPLC system (Waters Corporation, Milford, MA, USA) on a Phenomenex Kinetex EVO C18 column (150 mm × 4.6 mm; I.D. 5 μm) maintained at 25 ± 5 °C. The mobile phase consisted of solution ‘A’ (acetonitrile) and solution ‘B’ (0.05% trifluoroacetic acid in water, v/v). The percentage was initially set at 10% and increased to 60% within 5 min, using a flow rate of 0.5 mL/min. […] The total run time was 9 min, and the injection volume was 20 μL. We set the autosampler at 10 ± 5 °C. The ultra-performance liquid chromatography (UHPLC) was interfaced to an ACQUITY QDa detector (Waters Corporation) with electrospray ionization […] in positive mode used for detection. The optimized tuning parameters were as follows: capillary voltage, 0.3 kV; cone voltage, 8 V; and probe temperature, 600 °C. The mass transitions were m/z 585.5 for colistin A, 578.5 for colistin B, and 602.8 for polymyxin B (an internal standard).
Sample pre-treatment: Five microliters of polymyxin B (Toronto Research Chemicals, CAS number 1405-20-5) dissolved in water (420 μg/mL, an internal standard) was added to 100 μL rat plasma sample. After that, 400 μL of acetonitrile and 10% trichloroacetic acid mixed solution (50/50, v/v) was added. The samples were vortex-mixed for 1 min and then centrifuged at 12,000 rpm for 10 min. Following centrifugation, the supernatant was collected and filtered with 0.45 μm PVDF membrane filter for analysis.
The day before the pharmacokinetic study, the right carotid artery of each rat was cannulated for collection of blood samples. Following surgery, rats were individually housed in metabolic cages and were given 24 h for recovery. […] Blood plasma was collected at min 0, 15, 60, 120, and 180 following drug infusion. All blood samples were collected and transferred into an EDTA-K2 tube, and were then centrifuged at 1500 rcf for 10 min at 4 °C. The experiments were repeated three times. After centrifugation, the plasma was collected and examined by LC-MS. In previous pharmacokinetic studies, colistin is best described by the one-compartment linear model. […] CMS is hydrolyzed to form partially sulfomethylated derivatives as well as colistin sulfate, the active form of the drug. Like CMS, colistin is released from CCM-CL once ferrous ions in the CCM complex are captured by transferrin [34]. Therefore, we estimated the pharmacokinetics for colistin using the one-compartment model and CCM-CL using the two-compartment model. The data were analyzed using PKsolver (Microsoft Excel).

[3] = system: carbapenem-resistant P. aeruginosa (CRPA); assay: Bacterial load in lung of infected mice; format: in vivo, C57BL/6 mice; conditions: mice infected intratracheally, drug iv 1.5 h after infection, sacrificed 48 h later, lung homogenate 10-fold diluted, 48 h incubation
Experimental: as §1
This study was conducted and administered along with the survival assay. The pulmonary burden of P. aeruginosa was determined on the third day. Mice were sacrificed with carbon dioxide; then, their lungs were removed aseptically and rinsed with sterile saline. The lungs were treated with a homogenizer and then subjected to a 10-fold series of dilutions; 0.05 mL of each dilution was plated on dextrose agar. The plates were then incubated at 37 °C for 2 days, and the colonies were then enumerated.

[4] = system: Pseudomonas aeruginosa 048431 (carbapenem-resistant blood isolate); assay: MIC by broth microdilution; format: cell-based; conditions: Mueller-Hinton broth, 5 x 10^5 CFUs/mL, 37 °C, 24 h
Experimental: (§2) Antimicrobial effects of the colistin and CCM-CL against P. aeruginosa ATCC 27853, A. baumannii BCRC 10591, and P. aeruginosa 048,431 were determined by the minimal inhibitory concentration (MIC). P. aeruginosa ATCC […] and A. baumannii BCRC 10591 are standard strains; they were purchased from the American Type Culture Collection and Biosource Collection and Research Center, Taiwan, respectively. P. aeruginosa 048431 is a carbapenem-resistant blood isolate from a patient with lung adenocarcinoma and ventilator-associated pneumonia. The broth microdilution method determined the MICs for the study drugs. Briefly, serial doubling dilutions of antimicrobial agents were made in a Mueller–Hinton broth. The final bacterial suspension in the mixture was adjusted to 5 × 10^5 CFUs/mL, and the exact colony count was measured by plating 10-fold serially diluted specimens of 100 μL aliquots on drug-free nutrient agar (Difco Laboratories, Franklin, NJ, USA). The mixtures of bacteria and drugs were incubated at 37 °C for 24 h. The MIC is defined as the lowest antibiotic concentration preventing visible growth in broth.

[5] = system: Pseudomonas aeruginosa ATCC27853; assay: MIC by broth microdilution; format: cell-based; conditions: Mueller-Hinton broth, 5 x 10^5 CFUs/mL, 37 °C, 24 h
Experimental: as §2

[6] = system: Acinetobacter baumannii 10591; assay: MIC by broth microdilution; format: cell-based; conditions: Mueller-Hinton broth, 5 x 10^5 CFUs/mL, 37 °C, 24 h
Experimental: as §2

[7] = system: male C57BL/6 mice; assay: No observed adverse effect level (NOAEL), up-and-down procedure; format: in vivo; conditions: for No. of Survival/Total Mice: 6 mg/mL, 8-week-old male C57BL/6 mice
Experimental: In the up-and-down method, animals were dosed one at a time. If an animal survived, the dose for the next animal increased; if it died, the next dose decreased. This test determined the safety of a single dose for intravenous bolus injection and 3 min infusion.

CC[C@H](C)CCCCC(=O)N[C@@H](CCN)C(=O)N[C@H](C(=O)N[C@@H](CCN)C(=O)N[C@H]1CCNC(=O)[C@H]([C@@H](C)O)NC(=O)[C@H](CCN)NC(=O)[C@H](CCN)NC(=O)[C@H](CC(C)C)NC(=O)[C@@H](CC(C)C)NC(=O)[C@H](CCN)NC1=O)[C@@H](C)O [Colistin, Colistin sulfate] (X1-[Dab]T[Dab][Dab][Dab][dL]L[Dab][Dab]T; lactam 4-C)
14-day survival rate [1]: 30%
AUC0–t ([2]; plasma sampled to 180 min): 239.31 mg·min/L
AUC0–inf ([2]; plasma): 239.32 mg·min/L
Cmax ([2]; plasma): 9030 ng/mL
t1/2, elimination half-time T1/2(β) ([2]; plasma): 12.46 min
t1/2, elimination half-time T1/2(β) ([2]; plasma, listed as free colistin): 102.23 min
Colony counts of CRPA isolated from the lungs [3]: 60 CFU
Minimal inhibitory concentration [4]: 0.5
Minimal inhibitory concentration [5]: 0.5
Minimal inhibitory concentration [6]: 2
No. of Survival/Total Mice ([7]; intravenous bolus injection, single dose 8 mg/kg): 5/5
No. of Survival/Total Mice ([7]; intravenous bolus injection, single dose 13 mg/kg): 0/1
No. of Survival/Total Mice ([7]; intravenous bolus injection, single dose 20 mg/kg): 1/3
Safe dosage (NOAEL), slow infusion ([7]; single 3 min intravenous infusion, male C57BL/6 mice): 8 mg/kg
Safe (NOAEL) dose, bolus ([7]; single intravenous bolus injection, male C57BL/6 mice): 13 mg/kg
No. of Survival/Total Mice ([7]; slow infusion (3 min), single dose 13 mg/kg): 0/1

Source: PMC10215448, “The Antimicrobial Effects of Colistin Encapsulated in Chelating Complex Micelles for the Treatment of Multi-Drug-Resistant Gram-Negative Bacteria: A Pharmacokinetic Study” (Antibiotics, 2023)
